Data set [1] relates to panel of 60 human kinases. Description: Radiolabeled ATP kinase assay, panel of 60 kinases (Table S5). It counts as biochemical. The settings on record: 0.5 μM. The essentials:
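Compounds at two concentrations, 0.1 μM and 0.5 μM, were screened for inhibition of 60 kinases in cell-free assays read out by radiolabeled ATP.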

The test system of data set [2] is targets of cyclin-dependent kinases and mitogen activated kinases. Description: Target engagement in CNS, per os 7 days (phosphoprotein blot of brain). To be noted: 5 or 10 mg/kg. The class given is in vivo, mouse. On the procedure:
To explore the target engagement in CNS for compound 12k, compounds 1 and 12k were administered continuously per os to wild-type mice (n=3 per treatment). […] Fresh brain samples were harvested after 7 days of treatment. Reduced brain samples were separated by SDS-PAGE and probed with an antibody that recognizes phosphoproteins that have been phosphorylated at motifs corresponding to the targets of cyclin-dependent kinases and mitogen activated kinases.

Data set [3] is described as follows: Plasma and brain concentration 30 min after IP injection. It counts as in vivo, mouse. To be noted: male, C57BL6/J, mouse, mice, ip dosing, 30 minutes; for Kp at 30 min: brain/plasma, read-out: B/P. On the procedure:
All studies were performed on 6-week old male C57BL6/J mice that were housed in the Columbia University Medical Center facility in a 12h light/dark cycle with access to food and water ad libitum. All animal procedures were approved by the Columbia University IACUC. […] Animals were weighed and injected once intraperitoneally (IP) at the indicated dose (10 or 20 mg/kg). After 30 min, animals were deeply anesthetized with 2.5% Avertin. Whole blood was collected by cardiac puncture in tubes containing 0.5M EDTA as an anticoagulant, and centrifuged for 10 min at 845 rcf at 4° to isolate plasma. Following cardiac puncture, animals were decapitated and brains were dissected and weighed. Brain samples were homogenized with a glass dounce homogenizer in 5 volumes of ddH2O. Brain and plasma samples were snap frozen in liquid nitrogen and stored at −80° C. before further processing.
The plasma samples were transferred to Eppendorf tubes (50 μL per sample) and diluted with acetonitrile (200 μL). The samples were sonicated for 1 minute followed by centrifugation at 16,000 rpm for 10 minutes. The supernatant was transferred to another Eppendorf tube and the solvent evaporated overnight. The samples were reconstituted in a mixture of 40 μL acetonitrile and 10 μL water transferred to a sample vial with insert, and analyzed by LC-MS.
The homogenized brain samples (250 μL) were transferred to Eppendorf tubes and diluted with acetonitrile (750 μL). The samples were sonicated for 1 minute followed by centrifugation at 16,000 rpm for 10 minutes. The supernatant (900 μL) was transferred to another Eppendorf tube and the solvent evaporated overnight. The samples were reconstituted in a mixture of 80 μL acetonitrile and 20 μL water, transferred to a sample vial with insert, and analyzed by LC-MS.
LC-MS analysis was performed on a platform comprising a Thermo Scientific Dionex Ultimate 3000 and a Bruker amaZon SL equipped with an electrospray ionization source controlled by Bruker Hystar 3.2. The compound concentration in each plasma sample was determined using a calibration curve. Chromatographic separation was performed by injecting 10 μL of the sample onto an Agilent Eclipse Plus C18 column (2.1×50 mm, 3.5 μm) maintained at 20° C. The flow rate was maintained at 400 μL/min. The initial flow conditions were 60% solvent A (water containing 0.1% acetic acid) and 40% solvent B (methanol containing 0.1% acetic acid). Solvent B was raised to 60% over 0.25 minutes and to 70% by 6.75 minutes.

Data set [4] relates to panel of 371 human kinases. The experiment in a line: Radiolabeled ATP kinase assay, panel of 371 kinases (Table S6). The class given is biochemical. The settings on record: 0.1 μM, 10 μM ATP. The text has this: ; FIG. 38C). […]. Further targeted analyses, such as genetic knock-down or knock-out, may be warranted to parse the role of these additional kinases in our model of neurodegeneration.

The target in another data set is HGK/MAP4K4 (Homo sapiens, UniProt O95819). To be noted: cited from earlier work.
Sequence of HGK/MAP4K4 (O95819 whole entry, species assumed): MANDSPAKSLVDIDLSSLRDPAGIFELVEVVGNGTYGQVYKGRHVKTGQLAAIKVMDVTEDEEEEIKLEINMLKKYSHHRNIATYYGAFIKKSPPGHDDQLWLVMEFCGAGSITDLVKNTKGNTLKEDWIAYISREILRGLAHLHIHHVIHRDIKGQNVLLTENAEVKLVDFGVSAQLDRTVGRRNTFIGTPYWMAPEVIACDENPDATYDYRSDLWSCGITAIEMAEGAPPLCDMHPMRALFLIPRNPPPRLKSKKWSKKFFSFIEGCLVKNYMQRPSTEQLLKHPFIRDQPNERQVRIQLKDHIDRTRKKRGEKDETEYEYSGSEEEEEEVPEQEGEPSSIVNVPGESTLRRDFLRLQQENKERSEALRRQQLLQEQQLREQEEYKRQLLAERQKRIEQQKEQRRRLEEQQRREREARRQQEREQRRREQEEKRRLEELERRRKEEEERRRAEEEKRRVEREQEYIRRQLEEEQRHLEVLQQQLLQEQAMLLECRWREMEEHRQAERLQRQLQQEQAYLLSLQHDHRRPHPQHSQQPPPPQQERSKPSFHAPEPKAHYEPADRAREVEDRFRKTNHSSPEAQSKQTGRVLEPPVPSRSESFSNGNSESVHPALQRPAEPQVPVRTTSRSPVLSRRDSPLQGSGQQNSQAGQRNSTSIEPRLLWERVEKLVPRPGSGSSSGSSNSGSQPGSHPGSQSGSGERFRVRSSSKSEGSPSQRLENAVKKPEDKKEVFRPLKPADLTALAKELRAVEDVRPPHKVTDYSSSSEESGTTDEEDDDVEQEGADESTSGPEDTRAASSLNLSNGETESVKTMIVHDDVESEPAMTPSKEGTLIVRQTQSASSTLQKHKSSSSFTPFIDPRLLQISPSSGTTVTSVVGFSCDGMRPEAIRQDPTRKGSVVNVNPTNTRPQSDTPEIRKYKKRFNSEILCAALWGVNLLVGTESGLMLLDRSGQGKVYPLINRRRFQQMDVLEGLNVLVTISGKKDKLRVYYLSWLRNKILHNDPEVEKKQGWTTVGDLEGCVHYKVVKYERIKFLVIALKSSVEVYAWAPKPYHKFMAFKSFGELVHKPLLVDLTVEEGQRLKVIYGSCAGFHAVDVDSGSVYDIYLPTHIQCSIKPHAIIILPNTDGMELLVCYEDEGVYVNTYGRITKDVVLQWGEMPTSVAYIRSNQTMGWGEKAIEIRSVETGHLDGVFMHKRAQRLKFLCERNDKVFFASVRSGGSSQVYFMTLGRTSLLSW
Data set [5] is described as follows: Spectrophotometric solubility assay of vehicle formulations (540 nM). The class given is physicochemical. On the procedure:
These mixtures were then read on a spectrophotometer at […] to assess optical density, a measure of the transparency of the mixture and an indicator of the formation of precipitates. […] At higher concentrations, these precipitates were visible by eye.
Compounds diluted in different vehicle formulations were added to clear cell culture media at ratios consistent with our in vivo dosing scheme.

The subject of data set [6] is human stem cell-derived motor neurons derived from a healthy patient. Description: CPA survival assay, wild-type human stem cell-derived motor neurons. The settings on record: CPA 33 μM; at 1.2 μM (PF-6260933), 2.4 μM (GNE-495), 0.6 μM (URMC-099).
Data set [7] deals with human ALS stem cell-derived motor neurons. The experiment in a line: Rescue of CPA toxicity, 6-point dose-response assay (FIG. 2B). It counts as cell-based.

Each structure is given as a SMILES string. Values joined by “and” are separate entries in the source; they are usually repeats but may differ in a detail not shown here. Equal entries are not always repeated. Where two headings read alike, the source gives them in different places.

For the compound `CN1CCN(Cc2ccc(-c3cnc4[nH]cc(-c5cccc(Cl)c5)c4c3)cc2)CC1` [Compound 7ad, 3-(3-Chlorophenyl)-5-(4-((4-methylpiperazin-1-yl)methyl)phenyl)-1H-pyrrolo[2,3-b]pyridine], the “number of the 60 kinases strongly inhibited (<20% residual activity)” value in data set [1] is 12.

With `OCCN1CCN(Cc2ccc(-c3cnc4[nH]cc(-c5cccc(Cl)c5)c4c3)cc2)CC1` [Compound 12k, 2-(4-(4-(3-(3-Chlorophenyl)-1H-pyrrolo[2,3-b]pyridin-5-yl)benzyl)piperazin-1-yl)ethan-1-ol], the “intensity of a high molecular weight phosphoprotein band in brain vs vehicle or compound 1” value in data set [2] is “consistently decreased the intensity of a high molecular weight band”. In addition, the Kp at 30 min in data set [3] (10 mg/kg) worked out at 3.3; in data set [3] (20 mg/kg) it was 4. Moreover, the concentration at 30 min is 1230 ng/g and 2.74 µM in data set [3] (10 mg/kg, read-out: brain); < 375 ng/mL and < 840 nM in data set [3] (10 mg/kg, read-out: plasma); 5180 ng/g and 11.6 µM in data set [3] (20 mg/kg, read-out: brain); 1290 ng/mL and 2.88 µM in data set [3] (20 mg/kg, read-out: plasma). In addition, the results for the “% Enzyme Activity (relative to DMSO controls)” value in data set [4] (LYN B), in data set [4] (PKCb2) and in data set [4] (PKG1b) were 89.48%, 89.45% and 101.46%, respectively.

In the case of `CN1CCN(Cc2ccc(-c3cnc4[nH]cc(-c5ccc6[nH]ccc6c5)c4c3)cc2)CC1` [Compound 1, 3-(1H-Indol-5-yl)-5-(4-((4-methylpiperazin-1-yl)methyl)phenyl)-1H-pyrrolo[2,3-b]pyridine, reference compound], at HGK/MAP4K4 (1 μM treatment), the “HGK enzyme activity remaining” value is 0.54%. For the same compound, the “inhibition of HGK activity in a cell-free assay” value at HGK/MAP4K4 (1 μM, Goodfellow et al. 2013) is recorded as above 99%. The “solubility after adding 2-hydroxypropyl-β-cyclodextrin to the vehicle” value in data set [5] (11% 2-hydroxypropyl-β-cyclodextrin) is “fully solubilize”. The “solubility in cell culture media” value in data set [5] (formulation 55% saline, 40% PEG-400, 5% DMSO) is “highly insoluble”. In addition, in data set [6], the “motor neuron survival restored, % of vehicle controls (maximum)” value is reported as 90%. Besides, the cellular potency in data set [7] is above 0.1 µM. The “concentrations showing protective effects” value in data set [7] (33 μM CPA) was at least 100 nM. Besides, the “concentration that completely reversed CPA-induced neurodegeneration” value in data set [7] (33 μM CPA, 0.01 μM-3 μM) is 1 µM. The Kp at 30 min in data set [3] (10 mg/kg) is 0.3; in data set [3] (20 mg/kg), 0.4. Further, the concentration at 30 min in data set [3] (10 mg/kg, read-out: brain) is 1010 ng/g and 1.89 µM; in data set [3] (10 mg/kg, read-out: plasma), 3210 ng/mL and 6 µM; in data set [3] (20 mg/kg, read-out: brain) it was 1410 ng/g and 2.64 µM; in data set [3] (20 mg/kg, read-out: plasma) it was 3480 ng/mL and 6.5 µM. Also, the “number of the 60 kinases strongly inhibited (<20% residual activity)” value in data set [1] was found to be 27.

Values taken from patent US12227500B2, “Substituted pyrrolo[2,3-b]pyridines for suppressing toxic endoplasmic reticulum stress” (THE TRUSTEES OF COLUMBIA UNIVERSITY IN THE CITY OF NEW YORK, priority 2018, dated 2025).
